Laboratory results reported in patent US9920069B2, “Compounds for treatment of fluoroquinolone-resistant bacteria” (The Board of Trustees of the University of Illinois, priority 2014, dated 2018).
Converted amounts (≈) assume the structure as drawn. Where two headings read alike, the source gives them in different places.

What was measured:
[1] = tested on: VRE with the S83R mutation (GyrA); test: microbe, parasite or virus in culture; type: cell-based; conditions: Enterococcus
[2] = tested on: MRSA clinical isolate SAU.846; test: MIC, microdilution broth; type: cell-based, S. aureus; conditions: Staphylococcus aureus, MRSA, read-out: MIC
Experimental: (§1) Susceptibility testing was performed in triplicate using the microdilution broth method as outlined by the Clinical and Laboratory Standards Institute CLSI^52. MH broth was used.

[3] = Pharmacokinetic assessment, serum by HPLC; type: in vivo, C57BL/6 mice; conditions: mouse serum
Experimental: FIG. 13. Pharmacokinetic analysis of DNM, DNM-2, and DNM-3. C57/BL6 mice were treated with 50 mg kg^−1 DNM, DNM-2, or DNM-3 via oral gavage. After the indicated time points (15, 30, 60, 120, 240, and 480 min), mice were sacrificed and the serum concentrations of DNM, DNM-2, and DNM-3 was determined by HPLC.
The animal studies (PK, in vivo toxicity and in vivo efficacy) were carried out in strict accordance with the recommendations in the Guide for the Care and Use of Laboratory Animals of the National Institutes of Health. […] In these studies, 10-12 week old female C57BL/6 mice purchased from Charles River were used. DNM, DNM-2, and DNM-3 were formulated as slurries at 8.3 mg mL^−1 in 25% Cremophor RH40/water (v/v). Before beginning the pharmacokinetic assessment, mice were first tested for their ability to tolerate the DNM, DNM-2, and DNM-3 at 50 mg kg^−1 (p.o.). […] At specified time points, mice were sacrificed and blood was collected, centrifuged, and the serum was frozen at −80° C. until analysis. The proteins in a 50 μL aliquot of serum were precipitated by the addition of 50 μL of acetonitrile and the sample was centrifuged to remove the proteins. Serum concentrations of DNM, DNM-2, and DNM-3 were determined by HPLC. PK parameters were determined using GraphPad Prism Version 5.00 for Windows.

[4] = tested on: Herring Sperm DNA; type: binding; conditions: 30 min, pH 7.5
Experimental: FIG. 12. In vitro toxicity. A) Hemolysis assay. Human red blood cells were co-incubated with compound. After incubation for 2 h at 37° C., the supernatant was analyzed for hemolysis. Each compound was tested either at 160 μg mL^−1 or at the highest concentration which its solubility allowed. Concentrations (μg mL^−1) are indicated in parenthesis. The negative control is DMSO and the positive control is water. Data shown is from three independent replicates±SEM. B) Ethidium bromide (EtBr) intercalation assay. Compounds were incubated with Herring Sperm DNA, ethidium bromide, and compound of interest for 30 minutes. The solutions were then analyzed for ethidium bromide fluorescence. Any decrease in percentage fluorescence is indicative of compound intercalation. Doxorubicin (DOX) was used as a positive control.
These assays were performed as previously described (Bair et al. J. Am. Chem. Soc. 132, 5469-5478, (2010)). The ability of DNM-2 to intercalate into DNA was measured by an ethidium bromide displacement assay. Herring Sperm DNA (34 μg/mL final) was premixed with buffer containing ethidium bromide (50 mM Tris base, 100 mM NaCl, 1 mM EDTA, 5 μM EtBr, pH=7.5). 95 μL of this solution was added to a 96 well plate containing 5 μL of DMSO solutions of compounds. […] Fluorescence was then read on a Gemini microplate reader (Molecular Devices, excitation=545 nm, emission=595 nm).

[5] = tested on: VRE clinical isolate S557; test: organism not typed; type: cell-based, E. faecium; conditions: read-out: MIC
[6] = tested on: E. coli MG1655; test: microbe, parasite or virus in culture; type: cell-based; conditions: Escherichia coli, gyrA none, parC none
Experimental: E. coli MG1655 and the ΔAcrB strain were obtained from Prof. Cari Vanderpool at UIUC.
as §1

[7] = tested on: MRSA clinical isolate SAU.3024; test: MIC, microdilution broth; type: cell-based, S. aureus; conditions: Staphylococcus aureus
Experimental: as §1

Compound	MIC [1] [µg/mL]	MIC [2] [µg/mL]	AUC ([3]; 50 mg kg^−1 oral dose) [ng·h/mL]	Cmax / peak serum concentration ([3]; 50 mg kg^−1 oral dose) [ng/mL]	Cmax ([3]; 50 mg kg^−1 oral dose, read-out: Cmax / peak serum concentration) [µM]	AUC ([3]; 50 mg kg^−1 oral gavage) [ng·h/mL]	Cmax ([3]; 50 mg kg^−1 oral gavage) [ng/mL]	Tmax ([3]; 50 mg kg^−1 oral gavage) [h]	t1/2 ([3]; 50 mg kg^−1 oral gavage) [h]	concentration without significant DNA intercalation [4] [µM]	MIC [5] [µg/mL]	MIC [6] [µg/mL]	MIC [7] [µg/mL]
Cc1cc(=O)n(C)c2c3c4c(cc12)c(C)cc(=O)n4CO3 [DNM, deoxynybomycin]	≥ 1	0.031 (≈ 0.11 µM)											
CCn1c(=O)cc(C)c2cc3c(C)cc(=O)n4c3c(c21)OC4 [DNM-2]			44000	12800	42.6	44000	12800	1.2	0.9	> 30	0.25 (≈ 0.844 µM)	> 24	0.125 (≈ 0.422 µM)
